Measured values from patent EP0008888A1, “Beta-lactam antibacterial compounds, their preparation and pharmaceutical compositions containing them” (BEECHAM GROUP PLC, priority 1978, dated 1980).
≈ marks a conversion by molar mass, not a printed value. Read-outs that look alike come from different tables or passages of the source.

How the values were obtained:
[1] = Solution stability of an aqueous solution (uv spectrum); assay type: physicochemical; conditions: aqueous solution (ca 2 mg ml^-1) stored at 5° for 2 months
[2] = test system: Bacillus subtilis ATCC 6633; experiment: Antibacterial activity (MIC); assay type: cell-based
[3] = test system: Escherichia coli NCTC 10418; experiment: Antibacterial activity (MIC); assay type: cell-based
[4] = test system: Staphylococcus aureus Oxford; experiment: Antibacterial activity (MIC); assay type: cell-based
Shigella sonnei MB11967 = experiment: Antibacterial activity (MIC); assay type: cell-based
Escherichia coli 0111 = experiment: Antibacterial activity (MIC); assay type: cell-based
[5] = test system: Streptococcus pneumoniae CN33; experiment: Antibacterial activity (MIC); assay type: cell-based
[6] = test system: Escherichia coli ATCC 27166; experiment: Antibacterial activity (MIC); assay type: cell-based
[7] = test system: Streptococcus pyogenes CN10; experiment: Antibacterial activity (MIC); assay type: cell-based
Klebsiella aerogenes A = experiment: Antibacterial activity (MIC); assay type: cell-based
[8] = test system: Salmonella typhimurium CT10; experiment: Antibacterial activity (MIC); assay type: cell-based
Citrobacter freundii E8 = experiment: Antibacterial activity (MIC); assay type: cell-based
[9] = test system: Branhamella catarrhalis 1502; experiment: Antibacterial activity (MIC); assay type: cell-based
Escherichia coli ESS = experiment: Antibacterial activity (MIC); assay type: cell-based
[10] = Bacillus subtilis, ATCC6633, Bacillus subtilis ATCC 6633, read-out: MIC
[11] = Escherichia coli, NCTC10418, Escherichia coli NCTC 10418, read-out: MIC
[12] = Shigella sonnei, MB11967, Shigella sonnei MB11967, read-out: MIC
[13] = Escherichia coli, 0111, Escherichia coli 0111, read-out: MIC
[14] = Escherichia coli, ATCC27166, Escherichia coli ATCC 27166, read-out: MIC
[15] = Klebsiella aerogenes, read-out: MIC
[16] = Salmonella enterica, TYPHIMURIUM, read-out: MIC
[17] = Citrobacter freundii, E8, Citrobacter freundii E8, read-out: MIC

With CCSC1=C(C(=O)[O-])N2C(=O)C(CC)C2C1.[Na+] (stereo not shown) the solution stability [1] was “without deterioration”.
Compound CCSC1=C(C(=O)OCc2ccc([N+](=O)[O-])cc2)N2C(=O)CC2C1 (racemic) [(±), p-Nitrobenzyl 3-ethylthio-7-oxo-1-azabicyclo [3,2,0]hept-2-ene-2-carboxylate] has an MIC [2, 10] of 25 µg/mL (≈ 71.8 µM), an MIC [3, 11] of 50 µg/mL (≈ 144 µM) and an MIC ([4]; read-out: MIC) greater than 50 µg/mL. It also gave an MIC (Shigella sonnei MB11967; [12]) greater than 50 µg/mL, an MIC (Escherichia coli 0111; [13]) greater than 50 µg/mL and an MIC ([5]; Streptococcus pneumoniae, CN33, Streptococcus pneumoniae CN33, read-out: MIC) of 1.2 µg/mL (≈ 3.44 µM). For the same compound, the MIC [6, 14] was 12.5 µg/mL (≈ 35.9 µM), the MIC ([7]; Streptococcus pyogenes, CN10, Streptococcus pyogenes CN10, read-out: MIC) was 1.2 µg/mL (≈ 3.44 µM) and the MIC (Klebsiella aerogenes A; [15]) was 25 µg/mL (≈ 71.8 µM). For the same compound, the MIC [8, 16] was 50 µg/mL (≈ 144 µM), the MIC (Citrobacter freundii E8; [17]) was 50 µg/mL (≈ 144 µM) and the MIC ([9]; Moraxella catarrhalis, 1502, Branhamella catarrhalis 1502, read-out: MIC) was 1.2 µg/mL (≈ 3.44 µM). It also gave an MIC (Escherichia coli ESS; Escherichia coli, read-out: MIC) of 12.5 µg/mL (≈ 35.9 µM).
Compound CCSC1=C(C(=O)OCc2ccc([N+](=O)[O-])cc2)N2C(=O)CC2C1 (single isomer, unassigned; (+)) [(+), (+) p-Nitrobenzyl 3-ethylthio-7-oxo-1-azabicyclo[3.2.0] hept-2-ene-2-carboxylate] has an MIC ([2]; Bacillus subtilis ATCC 6633) of 25 µg/mL (≈ 71.8 µM), an MIC ([3]; Escherichia coli NCTC 10418) of 25 µg/mL (≈ 71.8 µM) and an MIC [4] greater than 50 µg/mL. The MIC (Shigella sonnei MB11967; Shigella sonnei MB11967) was 50 µg/mL (≈ 144 µM), the MIC (Escherichia coli 0111; Escherichia coli 0111) was 50 µg/mL (≈ 144 µM) and the MIC ([5]; Streptococcus pneumoniae CN33) was 0.5 µg/mL (≈ 1.44 µM). It also gave an MIC ([6]; Escherichia coli ATCC 27166) of 12.5 µg/mL (≈ 35.9 µM), an MIC ([7]; Streptococcus pyogenes CN10) of 1.2 µg/mL (≈ 3.44 µM) and an MIC (Klebsiella aerogenes A) of 12.5 µg/mL (≈ 35.9 µM). It also gave an MIC [8] of 50 µg/mL (≈ 144 µM), an MIC (Citrobacter freundii E8; Citrobacter freundii E8) of 25 µg/mL (≈ 71.8 µM) and an MIC ([9]; Branhamella catarrhalis 1502) of 0.5 µg/mL (≈ 1.44 µM). For the same compound, the MIC (Escherichia coli ESS) was 5.0 µg/mL (≈ 14.4 µM).
With CCSC1=C(C(=O)OCc2ccc([N+](=O)[O-])cc2)N2C(=O)CC2C1 (single isomer, unassigned; (-)) [(-), (-) p-Nitrobenzyl 3-ethylthio-7-oxo-1-azabicyclo[3.2.0] hept-2-ene-2-carboxylate] the MIC [2, 10] was 50 µg/mL (≈ 144 µM), the MIC [3, 11] was greater than 50 µg/mL and the MIC ([4]; read-out: MIC) was greater than 50 µg/mL. For the same compound, the MIC (Shigella sonnei MB11967; [12]) was greater than 50 µg/mL, the MIC (Escherichia coli 0111; [13]) was greater than 50 µg/mL and the MIC ([5]; Streptococcus pneumoniae CN33) was 2.5 µg/mL (≈ 7.18 µM). The MIC [6, 14] was 25 µg/mL (≈ 71.8 µM), the MIC ([7]; Streptococcus pyogenes CN10) was 2.5 µg/mL (≈ 7.18 µM) and the MIC (Klebsiella aerogenes A; [15]) was 25 µg/mL (≈ 71.8 µM). For the same compound, the MIC [8, 16] was greater than 50 µg/mL, the MIC (Citrobacter freundii E8; [17]) was greater than 50 µg/mL and the MIC ([9]; Branhamella catarrhalis 1502) was 2.5 µg/mL (≈ 7.18 µM). It also gave an MIC (Escherichia coli ESS) of 25 µg/mL (≈ 71.8 µM).
